Data as given in patent US20090087845A1, “Genetic Markers Of True Low Birth Weight” (priority 2005, published 2009).
Several values for one entry are separate records, joined by “and”; a condition that tells them apart may be missing. Identical values can stand only once.

Test system: placental gene expression
Assay: Placental gene expression (Affymetrix Rat Genome Chip 230.2) after SSRI (fluoxetine) exposure throughout gestation
Format: in vivo
Method: Gene expression data from pregnant rats under different forms of dietary restriction was gathered. […] (N=8) • Group 2 (CR50): Rats Given 50% of their Normal Daily Intake of Food. (N=5) • Group 3 (CR70): Rats Given 70% of their Normal Daily Intake of Food. […] (N=6) Placentas from the rats of each Group were harvested on Day 21 of gestation. RNA was extracted and gene expression was measured based on hybridization of RNA to Affymetrix Rat Genome Chips™ (230.2) (Affymetrix, Santa Clara, Calif.).
In order to determine whether placental gene expression profiling can be used to identify other prenatal exposures such as toxicants and drugs, a group of rats with drug exposure was monitored as described above. […] As with control, CR50, CR70, and HF groups, placentas from the mothers were sampled after 21 days of gestation and gene expression monitored utilizing an Affymetrix Rat Genome Chip.

[1] = placenta, SSRI exposure during gestation, each SSRI column = one sample

**Q.** Which results are given for CNCCC(Oc1ccc(C(F)(F)F)cc1)c1ccccc1 (centres unmarked) [fluoxetine, Fluoxetine]?
**A.** Probeset 1391509_at expression (SSRI exposure during gestation): 8.436 and 8.44 and 8.929 and 8.687 and 8.508 and 8.574; Probeset 1391678_at expression (SSRI exposure during gestation): 7.246 and 7.316 and 7.365 and 7.475 and 7.387 and 7.426; Probeset 1391962_at expression (SSRI exposure during gestation): 3.906 and 3.859 and 3.835 and 3.838 and 3.857 and 3.918; Probeset 1392950_at expression (SSRI exposure during gestation): 3.887 and 3.884 and 3.809 and 3.812 and 3.82 and 3.885; Probeset 1393104_at expression (SSRI exposure during gestation): 5.976; Probeset 1393428_at expression (SSRI exposure during gestation): 6.023 and 6.1025 and 6.34 and 6.137 and 6.165 and 5.935; Probeset 1393438_at expression (SSRI exposure during gestation): 5.322 and 5.381 and 5.359 and 5.376 and 5.366 and 5.287; Probeset 1393539_at expression (SSRI exposure during gestation): 5.342 and 5.53 and 5.247 and 5.255 and 5.363 and 5.602; Probeset 1393939_at expression (SSRI exposure during gestation): 4.456 and 4.322 and 4.388 and 4.385 and 4.239 and 4.386; Probeset 1393989_at expression (SSRI exposure during gestation): 7.171 and 6.991 and 7.091 and 6.963 and 7.057 and 6.799; Probeset 1394343_s_at expression (SSRI exposure during gestation): 3.578 and 3.612 and 3.498 and 3.586 and 3.588 and 3.604; Probeset 1394383_at expression (SSRI exposure during gestation): 6.226 and 6.542 and 6.277 and 5.892 and 6.155 and 6.124; Probeset 1394790_at expression (SSRI exposure during gestation): 6.517 and 6.383 and 6.546 and 6.377 and 6.521 and 6.433; Probeset 1394887_x_at expression (SSRI exposure during gestation): 4.369 and 4.298 and 4.253 and 4.258 and 4.269 and 4.251; Probeset 1395316_at expression (SSRI exposure during gestation): 7.327 and 7.192 and 7.672 and 7.075 and 7.225 and 7.176; Probeset 1396130_at expression (SSRI exposure during gestation): 3.997 and 4.12 and 3.89 and 3.815 and 3.974 and 3.921; Probeset 1397268_at expression (SSRI exposure during gestation): 5.157 and 5.261 and 5.068 and 4.99 and 5.173 and 4.92; Probeset 1397587_at expression (SSRI exposure during gestation): 7.542 and 7.104 and 7.072 and 7.17 and 7.225 and 6.496; Probeset 1397676_at expression (SSRI exposure during gestation): 4.933 and 5.266 and 5.715 and 5.112 and 5.274 and 5.346; Probeset 1397934_at expression (SSRI exposure during gestation): 8.299 and 8.221 and 8.122 and 8.187 (2×) and 8.222; Probeset 1397956_at expression (SSRI exposure during gestation): 6.013 and 6.031 and 6.26 and 5.9 and 5.674 and 6.039; Probeset 1398025_at expression (SSRI exposure during gestation): 7.379 and 7.277 and 7.364 and 7.102 and 7.172 and 7.095; Probeset 1398136_at expression (SSRI exposure during gestation): 4.109 and 4.099 and 4.035 and 4.047 and 4.062 and 4.154; Probeset 1398208_s_at expression (SSRI exposure during gestation): 6.851 and 6.897 and 7.112 and 6.972 and 6.892 and 7.056; Probeset 1398486_at expression (SSRI exposure during gestation): 4.355 and 4.744 and 5.032 and 4.741 and 4.49 and 5.709; Probeset 1398949_at expression (SSRI exposure during gestation): 8.606 and 8.576 and 8.664 and 8.941 and 8.595 and 8.818; Probeset 1399108_at expression (SSRI exposure during gestation): 7.198 and 7.34 and 7.479 and 7.32 and 7.149 and 7.206; Probeset 1368198_at expression value [1]: 5.473 and 5.314 and 5.48 and 5.486; Probeset 1368824_at expression value [1]: 10.44 and 10.31 and 10.75 and 10.8577 and 10.39 and 10.8; Probeset 1369775_at expression value [1]: 9.454 and 9.493 and 9.497 and 9.711 and 9.436 and 9.608; Probeset 1370317_at expression value [1]: 8.582 and 8.538 and 9.288 and 9.274 and 9.399 and 9.017; Probeset 1370918_a_at expression value [1]: 11.48 and 11.57 and 11.99 and 11.82 and 11.71 and 11.77; Probeset 1371174_s_at expression value [1]: 5.805 and 5.865 and 5.868; Probeset 1373572_at expression value [1]: 8.281 and 8.071 and 8.726 and 8.553 and 8.626 and 8.452; Probeset 1373647_at expression value [1]: 8.537 and 8.662 and 9.067 and 8.963 and 8.812 and 8.988; Probeset 1375178_at expression value [1]: 5.304 and 5.523 and 5.583 and 5.437 and 5.444 and 5.62; Probeset 1376622_at expression value [1]: 8.516 and 8.814 and 8.398 and 8.068 and 8.494 and 8.379; Probeset 1376661_at expression value [1]: 8.407 and 8.641 and 7.86 and 7.94 and 7.632 and 8.114; Probeset 1377365_at expression value [1]: 5.846 and 5.083 and 5.532 and 6.127 and 5.643 and 5.687; Probeset 1378200_at expression value [1]: 3.755 and 3.651 and 3.848 and 3.847 and 4.036 and 3.882; Probeset 1378906_at expression value [1]: 3.9529 and 3.997 and 3.87 and 3.96 and 3.996 and 3.763; Probeset 1379691_at expression value [1]: 5.812 and 5.91 and 6.656 and 6.738 and 5.925 and 6.573; Probeset 1379822_at expression value [1]: 4.961 and 4.831 and 5.299 and 4.848 and 5.227 and 5.084; Probeset 1380175_at expression value [1]: 4.934 and 4.975 and 4.85 and 4.93 and 4.966 and 4.859; Probeset 1381456_at expression value [1]: 5.822 and 5.673 and 5.76 and 5.587 and 5.629 and 5.737; Probeset 1381492_at expression value [1]: 3.536 and 3.464 and 3.556 and 3.687 and 3.747 and 3.65; Probeset 1382156_at expression value [1]: 4.178 and 4.6 and 4.28 and 4.232 and 4.706 and 4.384; Probeset 1382670_at expression value [1]: 8.21 and 8.049 and 7.137 and 7.314 and 7.643 and 7.446; Probeset 1383054_at expression value [1]: 9.672 and 9.605 and 9.479 and 9.484 and 9.46 and 9.528; Probeset 1383329_at expression value [1]: 5.299 and 5.567 and 5.281 (2×) and 5.561 and 5.339; Probeset 1384137_at expression value [1]: 3.89 and 3.899; Probeset 1384367_at expression value [1]: 5.152 and 5.5769 and 5.098 and 5.103 and 5.137 and 5.449; Probeset 1384573_at expression value [1]: 9.396 and 9.335 and 9.669 and 9.82 and 10.3 and 9.808; Probeset 1385074_at expression value [1]: 6.094 and 5.703 and 6.069 and 5.946 and 6.214 and 6.404; Probeset 1385290_at expression value [1]: 5.664 (2×) and 5.339 and 5.511 and 5.599 and 5.438; Probeset 1385386_at expression value [1]: 4.05 and 4.2 and 4.368 and 4.404 and 4.111 and 4.351; Probeset 1385391_at expression value [1]: 5.218 and 4.757 and 4.618; Probeset 1385790_at expression value [1]: 8.262 and 8.645 and 8.217 and 8.093 and 8.254 and 8.458; Probeset 1387693_a_at expression value [1]: 4.775 and 5.713 and 5.222 and 5.079 and 4.944 and 5.129; Probeset 1387694_at expression value [1]: 5.039 and 4.874 and 4.919 and 4.933 and 5.073 and 4.691; Probeset 1387822_at expression value [1]: 5.838 and 6.319 and 5.874 and 5.79 and 5.5082 and 5.909; Probeset 1387836_at expression value [1]: 6.664 and 6.515 and 7.321 and 7.12 and 6.632 and 6.906; Probeset 1387914_at expression value [1]: 7.456 and 7.375 and 7.641 and 7.405 and 7.42 and 7.231; Probeset 1388131_at expression value [1]: 5.482 and 5.724 and 5.628 and 5.313 and 5.378 and 5.32; Probeset 1388363_at expression value [1]: 8.48 and 8.558 and 9.033 and 9.198 and 8.642 and 9.018; Probeset 1388669_at expression value [1]: 7.943 and 7.729 and 8.56 and 8.668 and 8.519 and 8.408; Probeset 1389213_at expression value [1]: 7.554 and 7.674 and 7.18 and 7.082 and 7.285 and 7.531; Probeset 1389599_at expression value [1]: 6.535 and 6.776 and 5.918 and 6.015 and 6.327 and 6.205; Probeset 1390406_at expression value [1]: 10.62 (2×) and 11.01 and 10.93 and 11.3 and 11.1; Probeset 1390477_at expression value [1]: 5.088 and 5.213 and 4.637 and 4.864 and 4.99 and 4.712; Probeset 1390592_at expression value [1]: 9.083 and 9.085 and 9.028 and 9.301; Probeset 1391283_at expression value [1]: 5.168 and 5.671 and 5.216 and 5.355 and 5.486 and 5.461; Probeset 1391509_at expression value [1]: 7.81 and 8.329 and 7.825 and 7.918 and 8.117 and 8.184; Probeset 1391678_at expression value [1]: 6.728 and 7.03 and 6.037 and 5.684 and 5.954 and 6.264; Probeset 1391962_at expression value [1]: 4.079 and 4.011 and 3.937 and 4.018 and 4.024 and 3.918; Probeset 1393428_at expression value [1]: 6.698 and 6.377 and 7.114 and 7.29 and 7.299 and 6.755; Probeset 1393438_at expression value [1]: 5.068 and 5.185 and 5.0534 and 5.206 and 4.959 and 5.153; Probeset 1394343_s_at expression value [1]: 3.666 and 3.629 and 3.872 and 3.785 and 3.852 and 3.841; Probeset 1394383_at expression value [1]: 5.713 and 6.062 and 5.324 and 5.199 and 5.6 and 5.247; Probeset 1394887_x_at expression value [1]: 4.063 and 4.143 and 3.656 and 3.536 and 3.475 and 3.919; Probeset 1395817_at expression value [1]: 6.714 and 6.49 and 6.649; Probeset 1396130_at expression value [1]: 3.756 and 3.764 and 3.744 and 3.847 and 3.746 and 3.741; Probeset 1397268_at expression value [1]: 4.565 and 5.072 and 4.482 and 4.73 and 4.645 and 4.567; Probeset 1397587_at expression value [1]: 6.561 and 6.659 and 6.326 and 6.196 and 6.181 and 6.179; Probeset 1397934_at expression value [1]: 8.072 and 8.118 and 7.76 and 7.912 and 7.673 and 7.856; Probeset 1398136_at expression value [1]: 4.139 and 4.205 and 4.178 and 4.175 and 4.278 and 4.212; Probeset 1398486_at expression value [1]: 5.62 and 5.739 and 6.477 and 7.05 and 7.673 and 6.597; Probeset 1398949_at expression value [1]: 9.031 and 8.874 and 9.095 and 9.297 and 9.003 and 9.17; expression, probeset 368199_at (placenta, SSRI-exposed samples): 8.586 and 8.944 and 9.045 and 9.265 and 9.277 and 9.377; expression, probeset 1367489_at (placenta, SSRI-exposed samples): 7.839 and 8.052 and 7.771 and 7.614 and 7.86 and 7.738; expression, probeset 1367856_at (placenta, SSRI-exposed samples): 9.745 and 9.797 and 10.22 and 10.51 and 10.38 and 10.14; expression, probeset 1367866_at (placenta, SSRI-exposed samples): 5.591 and 5.571; expression, probeset 1367877_at (placenta, SSRI-exposed samples): 9.4471 and 9.923 and 9.622 and 8.883 and 9.902 and 8.73; expression, probeset 1367978_at (placenta, SSRI-exposed samples): 5.914 and 6.324 and 5.574 and 5.778 and 5.944 and 5.842; expression, probeset 1368083_at (placenta, SSRI-exposed samples): 8.501 and 8.375 and 9.053 and 8.928 and 9.103 and 8.728; expression, probeset 1368397_at (placenta, SSRI-exposed samples): 3.806 and 3.897 and 3.87 and 3.843 and 3.78 and 3.762; expression, probeset 1368542_at (placenta, SSRI-exposed samples): 6.355 and 7.586 and 6.712 and 6.347 and 6.563 and 7.001; expression, probeset 1368646_at (placenta, SSRI-exposed samples): 5.644 and 5.882 and 5.515 and 5.483 and 5.352 and 5.292
